Data on 1 compound can be found in publication PMC6433685, “Histone deacetylase inhibitor LMK235 attenuates vascular constriction and aortic remodelling in hypertension” (Journal of Cellular and Molecular Medicine, 2019).

Where only a bound is given, the exact number is not on record here.

The test system of one experiment is A10 cells. Put plainly: Western blot in A10 cells. Type of experiment: cell-based, rat. The protocol:
Cells were lysed in RIPA lysis buffer [150 mmol/L NaCl, 1% Triton X‐100, 1% sodium deoxycholate, 50 mmol/L Tris‐HCl pH 7.5, 2 mmol/L EDTA, 1 mmol/L PMSF, 1 mmol/L DTT, 1 mmol/L Na3VO4, and 5 mmol/L NaF] with protease inhibitor cocktail and sonicated. Approximately 30 μg of protein was separated by 10% sodium dodecyl sulphate‐polyacrylamide gel electrophoresis (SDS‐PAGE) and transferred to polyvinylidene difluoride (PVDF) membranes. After blocking with 5% skim milk for 1 hour, proteins were incubated with the primary antibodies overnight: anti‐cyclin D1 (1:1000), anti‐HDAC1 (1:1000), anti‐HDAC2 (1:1000), anti‐HDAC4 (1:1000) and anti‐HDAC5 (1:1000). As secondary antibodies, horse radish peroxidase‐linked antimouse or anti‐rabbit antibodies were used. Protein bands were visualized using Immobilon Western Detection Reagents (Millipore, Billerica, MA, USA). The Bio‐ID software was used to quantify protein expression (Vilber Lourmat, Eberhardzell, Germany).

The test system of a further experiment is AT1 and ACE1 mRNA. Nature of the experiment: AT1 and ACE1 mRNA (qRT-PCR) in aortas of SHRs. Type of experiment: in vivo, rats. The procedure: (§1) For the essential hypertension animal experiment, SHRs were used. The SHR is the most used model animal model for hypertension and is generally regarded as an essential hypertension model.13 SHRs (6 weeks old, approximately 170 g) were purchased from Charles River (Yokohama, Japan). Rats were intraperitoneally administered LMK235 or vehicle every 3 days for 2 weeks (n = 4 per group).
Total RNA from aortic tissue was isolated with TRIzol reagent (Invitrogen Life Technologies), and 1 μg of RNA was used for the reverse transcription reaction with TOPscript RT DryMIX (Enzynomics, South Korea). Quantification of mRNA levels was performed with the SYBR Green PCR kit (Enzynomics, South Korea).

The next experiment addresses T1, HDAC4 (Homo sapiens, UniProt P56524).
T1 construct: purchased BPS Bioscience 50064
Nature of the experiment: HDAC4 fluorogenic enzyme assay kit (BPS Bioscience), cell-free. It counts as biochemical. Conditions: 0.001-10 μmol/L inhibitor.

The subject of the next experiment is SHR aortas. Nature of the experiment: Aortic wall thickness (H&E) in SHRs. Type of experiment: in vivo, rats.
Source text: as §1, with “group). The paraffin‐embedded tissues were cut into 3‐μm‐thick sections, deparaffinized with xylene and then rehydrated with graded alcohol. Haematoxylin and eosin (H&E) staining was performed as described, with slight modifications.15 The arterial wall thickness was measured using NIS Elements Software (Nikon, Japan).” for “group).”

Another experiment has as its target T2, HDAC5 (Homo sapiens, UniProt Q9UQL6).
T2 construct: purchased BPS Bioscience 50065
Nature of the experiment: HDAC5 fluorogenic enzyme assay kit (BPS Bioscience), cell-free. It counts as biochemical. Conditions: 0.001-10 μmol/L inhibitor. The procedure:
Enzyme activity measurements of class I and IIa HDACs were performed using a cell‐free system and according to a method previously described.16 We used fluorogenic HDAC1 (#50061), HDAC2 (#50062), HDAC3 (#50063), HDAC4 (#50064), HDAC5 (#50065), HDAC6 (#50076), HDAC7 (#50067), HDAC8 (#50068) and HDAC9 (#50069) enzyme assay kits from BPS Bioscience (San Diego, CA, USA). To test the enzyme activity of LMK235, 0.001, 0.003, 0.01, 0.03, 0.1, 0.3, 1, 3 and 10 μmol/L concentrations were used. For the IC50 calculations, every data point was normalized to the vehicle (100% activity). The normalized data were fitted with a Hill non‐linear curve fit (OrigionPro 9.0).

The target of the next experiment is T3, HDAC3 (Homo sapiens, UniProt O15379).
T3 construct: purchased BPS Bioscience 50063
Nature of the experiment: HDAC3 fluorogenic enzyme assay kit (BPS Bioscience), cell-free. Type of experiment: biochemical. Conditions: 0.001-10 μmol/L inhibitor.

The next experiment deals with rat aortic rings. Nature of the experiment: Isometric tension: relaxation of U46619-induced contraction in rat aortic rings. The arrangement: species or system Sprague‐Dawley rats. Conditions: U46619 30 nmol/L, LMK235 cumulative 0.1-100 μmol/L. An excerpt: Male Sprague‐Dawley rats were purchased from Orient Bio (Gyeonggi‐do, South Korea). The thoracic aortas and mesenteric arteries were excised and immersed in an ice‐cold, modified Krebs solution composed of NaCl (115 mmol/L), KCl (4.7 mmol/L), CaCl2 (2.5 mmol/L), MgCl2 (1.2 mmol/L), NaHCO3 (25 mmol/L), KH2PO4 (1.2 mmol/L) and dextrose (10 mmol/L). Mesenteric arteries are secondary branches of the main mesenteric trunk. The aortas and mesenteric arteries were cleaned by removing adherent connective tissue, soaked in the Krebs‐bicarbonate solution and cut into four ring segments (3.5 mm in length), as described previously.14 Some rings were denuded of endothelium by gently rubbing the internal surface with the edge of the forceps. Each aortic ring was suspended in a water‐jacketed organ bath (6 mL) maintained at 37°C and aerated with a mixture of 95% O2 and 5% CO2. Each ring was connected to an isometric force transducer (Danish Myo Technology, Skejbyparken, Aarhus N, Denmark). Rings were stretched to an optimal resting tension of 2.0 g, which was maintained throughout the experiment. Each ring was equilibrated in the organ bath solution for 90 minutes before the experiment involving the contractile response to 50 mmol/L of KCl addition. […]

T1 sequence (P56524 whole entry): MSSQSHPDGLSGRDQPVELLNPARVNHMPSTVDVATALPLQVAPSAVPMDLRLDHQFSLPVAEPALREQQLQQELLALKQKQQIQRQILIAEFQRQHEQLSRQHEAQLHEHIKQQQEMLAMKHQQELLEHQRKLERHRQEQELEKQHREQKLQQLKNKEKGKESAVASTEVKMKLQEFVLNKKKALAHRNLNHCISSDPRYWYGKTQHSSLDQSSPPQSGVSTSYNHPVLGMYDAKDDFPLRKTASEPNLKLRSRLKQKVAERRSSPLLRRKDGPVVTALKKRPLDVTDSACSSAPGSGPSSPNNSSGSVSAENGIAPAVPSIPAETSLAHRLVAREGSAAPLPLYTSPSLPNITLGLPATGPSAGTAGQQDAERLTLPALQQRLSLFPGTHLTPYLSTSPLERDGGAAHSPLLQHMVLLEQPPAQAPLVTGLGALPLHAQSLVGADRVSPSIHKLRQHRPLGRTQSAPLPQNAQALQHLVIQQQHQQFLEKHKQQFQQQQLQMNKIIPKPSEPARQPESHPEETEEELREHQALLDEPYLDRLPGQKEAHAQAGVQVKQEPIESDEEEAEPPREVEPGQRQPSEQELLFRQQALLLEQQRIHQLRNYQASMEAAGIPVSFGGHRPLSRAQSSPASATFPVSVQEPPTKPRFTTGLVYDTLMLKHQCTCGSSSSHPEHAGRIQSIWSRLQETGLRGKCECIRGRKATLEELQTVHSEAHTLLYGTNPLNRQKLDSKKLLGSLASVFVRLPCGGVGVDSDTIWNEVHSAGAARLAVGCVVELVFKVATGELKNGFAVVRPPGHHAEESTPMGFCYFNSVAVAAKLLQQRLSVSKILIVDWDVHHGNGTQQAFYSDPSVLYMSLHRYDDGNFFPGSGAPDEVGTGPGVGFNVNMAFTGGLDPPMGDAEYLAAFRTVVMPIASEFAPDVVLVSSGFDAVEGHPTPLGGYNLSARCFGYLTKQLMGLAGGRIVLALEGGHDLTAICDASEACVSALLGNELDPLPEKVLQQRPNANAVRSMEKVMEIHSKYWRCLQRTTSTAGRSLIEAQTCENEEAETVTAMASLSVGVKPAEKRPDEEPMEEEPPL
T3 sequence (O15379 whole entry): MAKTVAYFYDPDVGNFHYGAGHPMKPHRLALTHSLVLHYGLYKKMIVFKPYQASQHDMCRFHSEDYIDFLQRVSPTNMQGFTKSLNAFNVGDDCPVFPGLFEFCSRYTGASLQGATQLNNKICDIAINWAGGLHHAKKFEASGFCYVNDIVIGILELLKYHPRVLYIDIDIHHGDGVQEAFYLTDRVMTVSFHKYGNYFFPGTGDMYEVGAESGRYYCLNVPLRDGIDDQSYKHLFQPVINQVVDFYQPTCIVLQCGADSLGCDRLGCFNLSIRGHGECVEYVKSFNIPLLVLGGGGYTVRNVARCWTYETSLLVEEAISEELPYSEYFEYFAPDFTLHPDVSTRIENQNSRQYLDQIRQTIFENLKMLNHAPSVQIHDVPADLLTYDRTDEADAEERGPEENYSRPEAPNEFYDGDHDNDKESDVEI
T3 sequence (Q9Y618 395-489 partner limits assumed): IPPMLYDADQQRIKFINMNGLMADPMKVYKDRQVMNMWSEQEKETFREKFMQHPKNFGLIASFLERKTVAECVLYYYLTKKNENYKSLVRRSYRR
T2 sequence (Q9UQL6 whole entry): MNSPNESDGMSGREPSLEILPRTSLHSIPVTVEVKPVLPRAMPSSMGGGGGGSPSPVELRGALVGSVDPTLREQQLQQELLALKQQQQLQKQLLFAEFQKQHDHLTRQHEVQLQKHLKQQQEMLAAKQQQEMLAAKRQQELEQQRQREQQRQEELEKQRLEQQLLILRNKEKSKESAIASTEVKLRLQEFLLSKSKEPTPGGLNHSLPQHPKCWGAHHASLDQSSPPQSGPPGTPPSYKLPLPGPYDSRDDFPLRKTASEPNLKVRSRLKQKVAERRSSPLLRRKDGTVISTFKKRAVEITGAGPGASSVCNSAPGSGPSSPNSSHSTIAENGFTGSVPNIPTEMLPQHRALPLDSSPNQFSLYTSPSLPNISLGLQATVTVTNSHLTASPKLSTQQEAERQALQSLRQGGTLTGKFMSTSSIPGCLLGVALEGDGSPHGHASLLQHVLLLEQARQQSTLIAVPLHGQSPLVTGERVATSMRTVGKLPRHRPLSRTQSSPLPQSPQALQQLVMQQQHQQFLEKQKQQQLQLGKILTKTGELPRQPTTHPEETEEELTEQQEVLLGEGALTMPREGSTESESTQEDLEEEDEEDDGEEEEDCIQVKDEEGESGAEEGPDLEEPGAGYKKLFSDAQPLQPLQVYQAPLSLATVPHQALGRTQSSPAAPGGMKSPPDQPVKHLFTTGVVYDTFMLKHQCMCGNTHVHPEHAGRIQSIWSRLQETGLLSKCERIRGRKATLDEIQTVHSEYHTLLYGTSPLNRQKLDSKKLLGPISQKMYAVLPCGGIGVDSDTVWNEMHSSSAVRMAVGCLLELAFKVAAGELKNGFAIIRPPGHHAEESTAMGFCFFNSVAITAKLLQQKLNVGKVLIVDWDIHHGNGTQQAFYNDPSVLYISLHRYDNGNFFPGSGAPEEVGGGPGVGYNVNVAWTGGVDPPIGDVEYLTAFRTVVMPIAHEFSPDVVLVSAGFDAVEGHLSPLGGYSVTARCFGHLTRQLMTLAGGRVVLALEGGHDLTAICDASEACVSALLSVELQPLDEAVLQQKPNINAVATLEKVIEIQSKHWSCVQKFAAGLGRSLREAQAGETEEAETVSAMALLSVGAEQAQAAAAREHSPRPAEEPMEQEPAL

For `Cc1cc(C)cc(C(=O)NOCCCCCC(=O)NO)c1` [LMK235], in the experiment on A10 cells (A10 cells without CaMKIIα transfection, 18 h), the “protein expression of class I and IIa/b HDAC” value is “reduced protein expression”. For the same compound, in the experiment on A10 cells (CaMKIIα-transfected A10 cells), the “CaMKIIα-induced cyclin D1 protein” value is “reduced”. Besides, the “HDAC4 and HDAC5 proteins” value with A10 cells (CaMKIIα-transfected A10 cells) is “significantly reduced”. Further, the “protein expression of HDAC1 and HDAC2” value in the experiment with A10 cells (CaMKIIα-transfected A10 cells, 18 h) is recorded as “significantly reduced”. Also, the “AT1 mRNA levels in aorta” value in the experiment with AT1 and ACE1 mRNA is recorded as “not affected”. Further, the figures for the IC50 on HDAC4, on HDAC5 and on HDAC3 were more than 20 µM, more than 20 µM and 0.037 µM, respectively. Also, the aortic wall thickness entry in the experiment with SHR aortas is given as “reduced”. Further, the U46619-induced vasoconstriction result with rat aortic rings (endothelium-denuded aortic rings) was “inhibited”; with rat aortic rings (endothelium-intact aortic rings), “dose dependently reduced”.
